Laboratory results published in the NIST ThermoML archive (doi:10.1021/je900366m).
± gives the expanded uncertainty stated by the source.

Assays:
[1] = refractive index (Na D-line) (dimensionless); conditions: 293.1 K; 101.33 kPa; Liquid; Standard Abbe refractometry
[2] = 298.15 K; 101.33 kPa; Liquid; Pycnometric method

| refractive index [1] | mass density [2] [kg/m3] | Compound |
| --- | --- | --- |
| 1.422 ± 0.0004 | 1025.9 ± 0.4 | C1COCCO1 [1,4-dioxane] |
| 1.4408 ± 0.0004 | 831.8 ± 0.3 | CC=C(C)CCCC(C)(C)O [6-octen-2-ol, 2,6-dimethyl-] |
